In brackets after ≈: the same amount, converted by molar mass. Where a SMILES comes first, the peptide text is derived from it. Where no end group is shown, it is not given here. [ ]: non-standard residue; d: D form.
Key:
Candida krusei = assay type: cell-based; settings: 37° C. for 20 hours; tested twice, first/second value where not matched
Procedure: (§1) Further, with respect to not only the above-described strains but also various other strains, the “minimum inhibitory concentration (MIC)” was measured as follows. MIC is the lowest concentration of an agent that may inhibit the growth of a bacterium. MIC is used as a parameter for the efficacy of an antibacterial agent, for the strength of bacterial sensitivity, or the like. The bacteria can grow (proliferate) when the concentration is not higher than MIC, and cannot grow when the concentration is higher than MIC. Its measurement is carried out according to a method defined as a standard method by Japanese Society of Chemotherapy or CLINICAL AND LABORATORY […] (CLSI), but, in this Example, its measurement was carried out by a broth microdilution method in accordance with “M100-S17/M7-A7” (Performance Standards for Antimicrobial Susceptibility Testing; Seventeenth Informational Supplement, Vol. 27 No. 1) published by CLSI on January, 2007. That is, sensitivity test of agents was carried out using a microtiter plate or test tubes.
(§2) The bacteria were cultured in liquid media for 4 to 6 hours, and thereafter absorbances at A600 were measured. Bacterial suspensions were diluted with Mueller-Hinton broth (MHB) according to McFarland #0.5. Each strain was added so as to attain about 10^5 CFU/ml (final concentration). Each peptide was prepared to an optional concentration, and the solutions were serially diluted from the concentration. The polypeptide at each concentration stage was added to a microplate or test tubes, and the bacterial suspension was added thereto. Chloramphenicol, amphotericin B, ciprofloxacin, meropenem (MEPM), ciprofloxacin (CPFX), tobramycin (TOB) and oxacillin (OX) were used as positive controls. The plate was incubated at 37° C. for 20 hours, and the lowest concentration where bacterial growth was inhibited was regarded as the minimum inhibitory concentration.

Trichophyton rubrum = assay type: cell-based; settings: 37° C. for 20 hours; tested twice, first/second value where not matched
Procedure: as §1, §2

Fusarium solani = assay type: cell-based; settings: 37° C. for 20 hours; tested twice, first/second value where not matched
Procedure: as §1, §2

Alternaria alternata = assay type: cell-based; settings: 37° C. for 20 hours; tested twice, first/second value where not matched
Procedure: as §1, §2

[1] = system: Penicillium glabrum (Penicillium frequentans); assay type: cell-based; settings: 37° C. for 20 hours; tested twice, first/second value where not matched
Procedure: as §1, §2

[2] = system: Trichophyton mentagrophytes; assay type: cell-based; settings: 37° C. for 20 hours; tested twice, first/second value where not matched
Procedure: as §1, §2

Staphylococcus aureus = experiment: microbe, parasite or virus in culture; assay type: cell-based; settings: 37° C. for 20 hours, tested twice, first/second value where not matched
Procedure: as §1, §2

MRSA (clinical strain 1) = experiment: microbe, parasite or virus in culture; assay type: cell-based; settings: Staphylococcus aureus, 37° C. for 20 hours, tested twice, first/second value where not matched
Procedure: as §1, §2

[3] = system: Staphylococcus epidermidis; experiment: MIC measurement, broth microdilution; assay type: cell-based; settings: 37° C. for 20 hours, tested twice, first/second value where not matched
Procedure: as §1, §2

MRSA (clinical strain 2) = experiment: microbe, parasite or virus in culture; assay type: cell-based, Staphylococcus aureus; settings: Staphylococcus aureus, MRSA; 37° C. for 20 hours; tested twice, first/second value where not matched
Procedure: as §1, §2

MSSA (clinical strain 1) = experiment: microbe, parasite or virus in culture; assay type: cell-based, Staphylococcus aureus; settings: 37° C. for 20 hours; tested twice, first/second value where not matched
Procedure: as §1, §2

MSSA (clinical strain 2) = experiment: microbe, parasite or virus in culture; assay type: cell-based, Staphylococcus aureus; settings: Staphylococcus aureus, MSSA; 37° C. for 20 hours; tested twice, first/second value where not matched
Procedure: as §1, §2

[4] = Stability in rat serum (HPLC); assay type: in vitro ADME; settings: 37° C.
Procedure: (§3) The stability of the polypeptides in serum was evaluated. In human serum (purchased from KAC Co., Ltd.), or in rat serum obtained by collecting blood from a rat, then leaving the collected blood to stand at room temperature followed by centrifugation, each of the peptides was dissolved so as to attain a final concentration of 500 μg/mL, and the obtained solutions were left to stand at 37° C. After leaving to stand for 3 min or 10 min, these solutions were subjected to HPLC chromatogram analysis to detect peaks of the decomposition products, and calculate the ratio of the concentration of the peptides which remained in the solutions relative to the starting concentration. In addition, the half-lives of the peptides in serum were also calculated.

[5] = Stability in human serum (HPLC); assay type: in vitro ADME; settings: 37° C.
Procedure: as §3

[6] = system: Normal human dermal fibroblasts (NHDFs); assay type: cell-based
Procedure: Next, the effect of these polypeptides on the growth of human umbilical vein endothelial cells (HUVECs) was studied. A cell growth activity of the polypeptides was examined using Cell Counting Kit (WST-1) available from Dojindo Laboratories. As a negative control (Control), polypeptide-free group was used. Cells (human umbilical vein endothelial cells: HUVECs) were plated in a 96-well plate (0.5×10^4 cells/well/100 μL, serum 1%). About 3 hours after plating the cells, the polypeptides (1, 3, 10, 30 or 100 μg/ml) and FGF (100 ng/ml) as a positive control were individually added thereto in an amount of 100 μL. To the unstimulated group, only a medium was added in an amount of 100 μL. The plate was left to stand in a CO2 incubator for about 48 hours. Thereafter, WST-1 reagent was added to each well in an amount of 20 μL, and then the plate was left to stand in a CO2 incubator for about 2 hours. Absorbances at wavelengths of 450 nm and 620 nm were measured using Wallac 1420 ARVOsx (Program: WST-1). A value of O.D.450-O.D.620 was calculated for each measurement. […] The cell growth activity was evaluated on the basis of the ratio of Net O.D.450 of polypeptide-containing groups relative to Net O.D.450 of the unstimulated group.
Then, the effect on the growth of normal human dermal fibroblasts (NHDFs) was also studied by the same method as described above.

[7] = Antibacterial activity, ATP assay (BacTiter-Glo); assay type: cell-based, Enterobacter aerogenes; settings: Table 7, mean values; peptides 10 μg/mL, TOB 4.0, OX 4.0, MEPM 0.5 μg/mL; 37° C. 3 hours; relative to negative control; read-out: Viability, Enterobacteria (2)
Procedure: The antibacterial activity of each of SR-08 and SR-07 polypeptides was measured using an ATP assay method. That is, using BacTiter-Glo Microbial Cell Viability Assay kit available from PROMEGA, the antibacterial activity of the peptides was evaluated from the viability of bacteria. In other words, ATP amount in viable bacteria in cases where the concentration of the peptides was 10 μg/mL was measured using a microtiter plate or test tubes. As controls, tobramycin (TOB), oxacillin (OX) and meropenem (MEPM) were used at the concentrations as respectively shown in Table 6 below.
With respect to the strains, Escherichia coli: ATCC 25922 (Escherichia coli ATCC 25922), Pseudomonas aeruginosa: ATCC 27853 (Pseudomonas aeruginosa ATCC 27853), Staphylococcus aureus: ATCC29213 (Staphylococcus aureus ATCC29213), Klebsiella pneumoniae: JCM 1662 (Klebsiella pneumoniae JCM 1662), enterobacteria (1): JCM 1232 (Enterobacter cloacae JCM 1232), and enterobacteria (2): JCM 1235 (Enterobacter aerogenes JCM 1235), were used.
The bacteria were cultured in media for 3 to 4 hours, and thereafter absorbances at A600 were measured. Bacterial suspensions were diluted with Mueller-Hinton broth (MHB) according to McFarland #0.5. Each strain was added so as to attain about 0.5-1×10^5 CFU/mL (final concentration) in terms of Escherichia coli. Each peptide was prepared and added to a microplate or test tubes so as to attain a final concentration of 10 μg/mL, and the bacterial suspension was added thereto. The plate was incubated at 37° C. for 3 hours, and the amount of ATP in the culture media was measured. Relative values were calculated by comparison with the negative control, and these values were regarded as the viability.

Clostridium ramosum = experiment: microbe, parasite or virus in culture; assay type: cell-based; settings: 37° C. for 20 hours; tested twice, first/second value where not matched
Procedure: as §1, §2

Fusobacterium nucleatum = experiment: microbe, parasite or virus in culture; assay type: cell-based; settings: 37° C. for 20 hours; tested twice, first/second value where not matched
Procedure: as §1, §2

Escherichia coli = experiment: MIC measurement, broth microdilution; assay type: cell-based; settings: 37° C. for 20 hours; tested twice, first/second value where not matched
Procedure: as §1, §2

[8] = system: Pseudomonas aeruginosa (clinical strain 9); experiment: MIC measurement, broth microdilution; assay type: cell-based; settings: 37° C. for 20 hours; tested twice, first/second value where not matched
[9] = system: Pseudomonas aeruginosa (clinical strain 12); experiment: MIC measurement, broth microdilution; assay type: cell-based; settings: 37° C. for 20 hours; tested twice, first/second value where not matched
[10] = system: Pseudomonas aeruginosa (clinical strain 8); experiment: MIC measurement, broth microdilution; assay type: cell-based; settings: 37° C. for 20 hours; tested twice, first/second value where not matched
Acinetobacter baumanni = assay type: cell-based; settings: 37° C. for 20 hours; tested twice, first/second value where not matched
Procedure: as §1, §2

Pseudomonas aeruginosa = assay type: cell-based; settings: 37° C. for 20 hours; tested twice, first/second value where not matched
Procedure: as §1, §2

[11] = system: Pseudomonas aeruginosa (clinical strain 1); experiment: microbe, parasite or virus in culture; assay type: cell-based; settings: 37° C. for 20 hours; tested twice, first/second value where not matched
[12] = system: Pseudomonas aeruginosa (clinical strain 6); experiment: MIC measurement, broth microdilution; assay type: cell-based; settings: 37° C. for 20 hours; tested twice, first/second value where not matched

C[C@@H]1[C@H](O)[C@@H](C)/C=C/C=C/C=C/C=C/C=C/C=C/C=C/[C@H](O[C@@H]2O[C@H](C)[C@@H](O)[C@H](N)[C@@H]2O)C[C@@H]2O[C@](O)(C[C@@H](O)C[C@@H](O)[C@H](O)CC[C@@H](O)C[C@@H](O)CC(=O)O[C@H]1C)C[C@H](O)[C@H]2C(=O)O [Amphotericin B, amphotericin B]
MIC, Candida krusei (Candida krusei): 2 µg/mL (≈ 2.16 µM)
MIC, Trichophyton rubrum (Trichophyton rubrum): 0.25 µg/mL (≈ 0.271 µM)
MIC, Fusarium solani (Fusarium solani): 1 µg/mL (≈ 1.08 µM)
MIC, Alternaria alternata (Alternaria alternata): 1 µg/mL (≈ 1.08 µM)
MIC, Penicillium glabrum (Penicillium frequentans) [1]: 0.125 µg/mL (≈ 0.135 µM)
MIC, Trichophyton mentagrophytes [2]: 0.125 µg/mL (≈ 0.135 µM)

Cc1onc(-c2ccccc2)c1C(=O)N[C@@H]1C(=O)N2[C@@H]1SC(C)(C)[C@@H]2C(=O)O [OX, oxacillin]
MIC (Staphylococcus aureus): 0.15 to 0.5 µg/mL (≈ 0.374 to 1.25 µM)
MIC (MRSA (clinical strain 1)): < 4 µg/mL
MIC ([3]; Staphylococcus epidermidis): 0.15 to 0.5 µg/mL (≈ 0.374 to 1.25 µM)
MIC (MRSA (clinical strain 2)): > 8 µg/mL
MIC, MSSA (clinical strain 1) (MSSA (clinical strain 1)): 3/8
MIC (MSSA (clinical strain 2)): < 2 µg/mL

CC[C@H](C)[C@H](NC(=O)[C@H](CC(C)C)NC(=O)[C@H](CCCCN)NC(=O)[C@H](CC(C)C)NC(=O)[C@@H](N)CCSC)C(=O)N[C@@H](Cc1ccccc1)C(=O)N[C@@H](CC(C)C)C(=O)N[C@@H](Cc1c[nH]cn1)C(=O)N[C@@H](CCCNC(=N)N)C(=O)N[C@@H](CC(C)C)C(=O)N[C@@H](CCCCN)C(=O)N[C@@H](CCCNC(=N)N)C(=O)N[C@@H](CCSC)C(=O)N[C@@H](CCCNC(=N)N)C(=O)N[C@@H](CCCCN)C(=O)N[C@@H](CCCNC(=N)N)C(=O)N[C@@H](CC(C)C)C(=O)N[C@H](CCCCN)C(=O)N[C@@H](CCCNC(=N)N)C(=O)N[C@@H](CCCCN)C(=O)O [SR-07] (H-MLKLIFLHRLKRMRKRL[dK]RK-OH; N-terminus and C-terminus assumed)
Ratio of peptide remaining relative to the starting concentration, rat serum, 0 min ([4]; 500 μg/mL, 0 min): 100
remaining at 0.05 h, 500 μg/mL ([4]; rat, rat serum, 3 min, read-out: Ratio of peptide remaining relative to the starting concentration, rat serum, 3 min): 51%
remaining at 10 min, 500 μg/mL ([4]; rat, rat serum, 10 min, read-out: Ratio of peptide remaining relative to the starting concentration, rat serum, 10 min): 16.5%
half-life ([4]; rat, serum, 500 μg/mL): 4 min
Ratio of peptide remaining relative to the starting concentration, human serum, 0 min ([5]; 500 μg/mL, 0 min): 100
remaining at 0.05 h, 500 μg/mL ([5]; human, human serum, 3 min, read-out: Ratio of peptide remaining relative to the starting concentration, human serum, 3 min): 98%
remaining at 10 min, 500 μg/mL ([5]; human, human serum, 10 min, read-out: Ratio of peptide remaining relative to the starting concentration, human serum, 10 min): 64.3%
half-life ([5]; human, serum, 500 μg/mL): 15 min
Concentration above which the polypeptide tended to exhibit toxicity, NHDFs (FIG. 4) [6]: > 30000 ng/mL
viability [7]: 16.5%

KNLRRIIRKIIHIIKKYG [AP00196]
MIC, Clostridium ramosum (Clostridium ramosum): 32/64
MIC, Fusobacterium nucleatum (Fusobacterium nucleatum): 2/4
MIC, Escherichia coli (Escherichia coli): 8/16
MIC, Staphylococcus epidermidis [3]: 8/16
MIC, Pseudomonas aeruginosa (clinical strain 9) [8]: 32/128
MIC, Pseudomonas aeruginosa (clinical strain 12) [9]: 16/32
MIC, Pseudomonas aeruginosa (clinical strain 8) [10]: 32/64
MIC, Fusarium solani (Fusarium solani): 4/8
MIC, Acinetobacter baumanni (Acinetobacter baumanni): 4/8
MIC, Pseudomonas aeruginosa (Pseudomonas aeruginosa): 16/32
MIC, Pseudomonas aeruginosa (clinical strain 1) [11]: 16/64
MIC, MSSA (clinical strain 1) (MSSA (clinical strain 1)): 16/32
MIC, Pseudomonas aeruginosa (clinical strain 6) [12]: 32/64

— US9695219B2, “Polypeptide having antibacterial activity and angiogenesis-inducing activity and wound-healing drug containing said polypeptide” (priority 2009, dated 2017)
